The values below come from a melting point compilation (Tetko et al.; mined from patent text by program, amines drawn as free bases though some values may be those of a salt).

Each structure is given as a SMILES string.

One may read the melting point as the temperature of the solid-liquid transition. `CCCCCCCCc1ccc(OCC(O)Cn2cccn2)cc1` (stereo unspecified) yielded a melting point of 88 °C.

`O=C(NCC(F)(F)F)c1ccc(C2=NOC(c3cc(Cl)cc(Cl)c3)(C(F)(F)F)C2)cc1` (stereo unspecified) showed a melting point of 94 to 96 °C.

On to `CN1C(=O)C(c2ccc(OC(F)F)cc2)(c2ccc(F)c(CF)c2)N=C1N` (stereo unspecified), for which the melting point lay in the range of 70 to 73 °C.

`CCN1CCc2sc3ncn(CCCl)c(=O)c3c2C1` had a melting point of 94 to 96 °C.

The compound `COc1ccc(C(=O)Nc2c(Cl)cncc2Cl)c2c1oc1ccccc12` came in with a melting point of 302 °C.

In turn, `N#Cc1cc(C(F)(F)F)[nH]c1-c1sc(Cl)c(Cl)c1Cl` gave a melting point of 220 to 221 °C.

Regarding `COC(=O)c1cc(F)c(OC)nc1Nc1ccc(F)cc1F`, the melting point fell in the range of 160 to 161 °C.

`C=C(CO)[C@H](C(=O)OC(c1ccccc1)c1ccccc1)N1C(=O)[C@@H]2N=C(c3ccccc3)O[C@@H]21` gave a melting point of 100 to 104 °C.

Regarding `COc1ccc2ccc(N3C(=O)c4ccccc4C3OC(=O)COCC(C)C)nc2n1` (stereo unspecified), the melting point was 114 °C.

Regarding `CC(C)Nc1ncc2ccc(=O)n(C)c2n1`, the melting point is 148 to 149 °C.

As for `N#CCc1cc(CO)cs1`, the melting point fell in the range of 45 to 47 °C.

The compound `CC(C)(C)OC(=O)C(=[N+]=[N-])C(=O)C(C(=O)OC(C)(C)C)[C@H]1NC(=O)[C@@H]1Br` (stereo partly specified) had a melting point of 136 to 138 °C.

On to `O=C(O)CCC(=NO)c1ccc(-c2ccc(Cl)cc2F)cc1`, for which the melting point lay within 148 to 150 °C.

Consider `Cc1c(N2CCC(C3(N)CCC3)C2)c(F)cc2c(=O)c(C(=O)O)cn([C@@H]3C[C@@H]3F)c12` (stereo partly specified), for which the melting point was in the range of 140 to 143 °C.

For the compound `CSc1nc(Cl)c(Cc2ccccc2)c(N2CCCC2)n1`, the melting point lay within 97 to 99 °C.

`COc1cccc(C(=O)NCCCCCCCNC(=O)c2cccc(OC)c2)c1` had a melting point of 109 to 112 °C.

As for `CNC(=O)c1cc2ccc3c(c2c(-c2ccc4c(c2)OCO4)c1CO)OCO3`, the melting point fell in the range of 233 to 235 °C.

Regarding `CS(=O)(=O)OC[C@@H]1CCC(=O)N1`, the melting point was 72 to 74 °C.

The compound `CCCCCC(=O)NCc1ccco1` gave a melting point of 54 to 55 °C.

On to `O=c1n(-c2cc(O)c(Cl)cc2F)nc2ccc(Cl)cn12`, for which the melting point is > 210 °C.

In turn, `Cc1ccc(C(CO)c2ccc(C(C)C)cc2)c(O)c1C` (stereo unspecified) came in with a melting point of 83 to 84 °C.

Turning to `BrCCCNC(c1ccccc1)(c1ccccc1)c1ccccc1`, the melting point was 100 to 102 °C.

On to `C=CCOc1cc(Cl)ccc1C(=O)OC`, for which the melting point lay in the range of 47 to 55 °C.

`COc1ccc(C(C)=O)cc1C(C)=CC(=O)O` gave a melting point of 194 °C.

Turning to `CO[C@]1(c2cc(F)cc(S(=O)(=O)c3ccc(/C(C)=N/O)cc3)c2)CCO[C@@H](C)C1`, the melting point amounted to 149 °C.

Consider `C[C@]1(CN2CCCc3ccccc32)Cn2cc([N+](=O)[O-])nc2O1`, for which the melting point fell in the range of 168 to 172 °C.

Turning to `O=C(O)c1ccc(OC(F)(F)F)c(OC2CCCC2)c1`, the melting point lay within 116 to 118 °C.

Compound `CN(C(=O)OC(C)(C)C)C1CCN(CC2(C)Cn3cc([N+](=O)[O-])nc3O2)CC1` (stereo unspecified) gave a melting point of 199 to 201 °C.

In turn, `NC(Cc1noc2ccccc12)=NO` displayed a melting point of 160 to 162 °C.

`C[C@@H]1CC[C@H](C(=O)O)Cc2onc(-c3ccc(Cl)cc3)c21` (relative stereo): the melting point was 154 to 155 °C.

As for `COc1ccc(CCc2ccc(NC(=O)C(=O)c3sc4ccccc4c3O)cc2)cc1OC`, the melting point was 203 °C.

Consider `Cn1cc2c(=O)c(C(=O)c3ccccc3)cn(C)c2n1`, for which the melting point is 272 to 274 °C.

Compound `Fc1cccc(-c2ccc3nnn(Cc4ccc5ncccc5c4)c3n2)c1` came in with a melting point of 145 to 147 °C.

In turn, `CCCCCOc1cc(C(=O)O)cc([N+](=O)[O-])c1C(=O)c1ccccc1` came in with a melting point of 163 to 165 °C.

With `O=C(O)CCCCCCN(Cc1ccccc1)C(=O)c1cn2c3c(cccc13)CCC2`, the melting point fell in the range of 45 to 47 °C.

In turn, `O=C(O)c1ccc(C(c2ccc(C(=O)O)cc2)(c2ccc(C(=O)O)cc2)C(F)(F)F)cc1` gave a melting point of 366 to 367 °C.

Compound `COc1cc(CCNC(=O)c2cccnc2)ccc1O` returned a melting point of 192 to 194 °C.

`CCOC(=O)c1cn(-c2nc(N)c(F)cc2F)c2c(F)c(F)c(F)c(NCc3ccccc3)c2c1=O` showed a melting point of 176 to 180 °C.

The compound `CCOC(=O)c1ccc(/C=C/c2ccc(O)c(C3(C)CCCCC3)c2)cc1` showed a melting point of 149 °C.

The compound `CC(C)(C)c1cc(C(=O)c2ccc(C#N)cc2)cc(C(C)(C)C)c1O` came in with a melting point of 166 to 168 °C.

`CCOC(=O)c1c(C)nc(Cl)c([N+](=O)[O-])c1N` displayed a melting point of 73 to 75 °C.

On to `COc1ccc(C(=O)Nc2ccc3ccc(Oc4cccc(Cl)c4)nc3n2)cc1`, for which the melting point was 182 °C.

In turn, `CC1=C(C(=O)OCOC(=O)C(C)(C)C)C(c2cccc([N+](=O)[O-])c2)C(C(=O)OCOC(=O)C(C)(C)C)=C(C)N1` returned a melting point of 124 to 125 °C.

On to `COc1cc2c(Nc3ccc(Cl)cc3F)ncnc2cc1OCCOc1ccncc1`, for which the melting point lay within 200 to 202 °C.

Compound `CC(=O)c1cc(Oc2ccccc2)c(NS(C)(=O)=O)cc1O` returned a melting point of 151 to 153 °C.

As for `COCCOCOc1c(Cl)cc(C=O)c(Cl)c1OCOCCOC`, the melting point is 50 °C.

For the compound `Cc1cc(Oc2cccc(C#CC(C)N(O)C(N)=O)c2)ccc1F` (stereo unspecified), the melting point was in the range of 141 to 142 °C.

On to `OC(CNCCNc1ccccc1Cl)COc1cccc2[nH]ncc12` (stereo unspecified), for which the melting point was 129 to 130 °C.

In turn, `CCCCNC(=O)[C@@H](C[C@H](O)[C@H](CC1CCCCC1)NC(=O)[C@H](Cc1cscn1)NC(=O)[C@@H](CC(=O)N1CCOCC1)Cc1ccccc1)C(C)(C)O` registered a melting point of 92 to 95 °C.

`COc1ccccc1CC(=N)N1CCC(=O)C(C(c2ccccc2)c2ccccc2)C1` (stereo unspecified) yielded a melting point of 57 to 58 °C.

Compound `COc1cccc(C23CCCC(C2)NC3=O)c1` (stereo unspecified) came in with a melting point of 109 to 111 °C.

On to `COc1ccc(N2CCN(c3c(C)c(C)c4c(c3C)C(O)(c3ccc(F)cc3)C(C)(C)O4)CC2)cc1` (stereo unspecified), for which the melting point lay in the range of 142 to 144 °C.

For `Cn1cncc1C(O)(c1ccc(Cl)cc1)c1ccc2c(c1)C(c1cccc(Cl)c1)SCc1nnnn1-2` (stereo unspecified), the melting point was 217 °C.

For the compound `O=C1Nc2cccnc2N(C(=O)CN2CCC(CCCN3CCCCC3)CC2)c2ccccc21`, the melting point lay in the range of 202 to 203 °C.

Compound `O=C(NCC/C=C/CCCNC(=O)c1ccc(OC(F)F)cc1)c1ccc(OC(F)F)cc1` yielded a melting point of 122 to 123 °C.

Turning to `N#Cc1ccc(N(Cc2ccc(OS(N)(=O)=O)cc2)n2cnnc2)cc1-c1ccc(C(F)(F)F)cc1`, the melting point was in the range of 177 to 180 °C.

Regarding `CN(C)C(=O)NCCNCC(O)COc1ccc(OCCOCC2CC2)cc1` (stereo unspecified), the melting point came out at 86 °C.

For the compound `C=CCN1CCCC1CNC(=O)c1cc(S(=O)(=O)NC)cc2c1OCCO2` (stereo unspecified), the melting point was 101 to 102 °C.

Consider `Ic1cccc(OCCCCCCOc2c(I)cc(I)cc2I)c1`, for which the melting point was 65 to 66 °C.

Compound `O=C(CCn1c2ccccc2c2ccccc21)OCCn1c2ccccc2c2ccccc21` registered a melting point of 163 to 165 °C.

Take `Cc1ccc(-c2nnc3cc(-c4ccccc4)c(OCc4ncn(C)n4)nn23)cc1`: the melting point lay within 219 to 220 °C.
